Measured values: US20230092890A1, “1, 3, 4-Oxadiazole derivative compounds as histone deacetylase 6 inhibitor, and the pharmaceutical composition comprising the same” (Chong Kun Dang Pharmaceutical Corp., priority 2019, published 2023)

Key:
HDAC6 human recombinant = target: T1, HDAC6 human recombinant (Homo sapiens, UniProt Q9UBN7); assay: HDAC enzyme activity inhibition (in vitro), HDAC6 assay; assay type: biochemical; conditions: samples at 0.1, 1, 10, 100 and 1000 nM; 37° C. 60 minutes; fluorescence Ex 390, Em 460; read-out: HDAC6 IC50
T1 construct: purchased Calbiochem 382180
T1 sequence (Q9UBN7 1-1215): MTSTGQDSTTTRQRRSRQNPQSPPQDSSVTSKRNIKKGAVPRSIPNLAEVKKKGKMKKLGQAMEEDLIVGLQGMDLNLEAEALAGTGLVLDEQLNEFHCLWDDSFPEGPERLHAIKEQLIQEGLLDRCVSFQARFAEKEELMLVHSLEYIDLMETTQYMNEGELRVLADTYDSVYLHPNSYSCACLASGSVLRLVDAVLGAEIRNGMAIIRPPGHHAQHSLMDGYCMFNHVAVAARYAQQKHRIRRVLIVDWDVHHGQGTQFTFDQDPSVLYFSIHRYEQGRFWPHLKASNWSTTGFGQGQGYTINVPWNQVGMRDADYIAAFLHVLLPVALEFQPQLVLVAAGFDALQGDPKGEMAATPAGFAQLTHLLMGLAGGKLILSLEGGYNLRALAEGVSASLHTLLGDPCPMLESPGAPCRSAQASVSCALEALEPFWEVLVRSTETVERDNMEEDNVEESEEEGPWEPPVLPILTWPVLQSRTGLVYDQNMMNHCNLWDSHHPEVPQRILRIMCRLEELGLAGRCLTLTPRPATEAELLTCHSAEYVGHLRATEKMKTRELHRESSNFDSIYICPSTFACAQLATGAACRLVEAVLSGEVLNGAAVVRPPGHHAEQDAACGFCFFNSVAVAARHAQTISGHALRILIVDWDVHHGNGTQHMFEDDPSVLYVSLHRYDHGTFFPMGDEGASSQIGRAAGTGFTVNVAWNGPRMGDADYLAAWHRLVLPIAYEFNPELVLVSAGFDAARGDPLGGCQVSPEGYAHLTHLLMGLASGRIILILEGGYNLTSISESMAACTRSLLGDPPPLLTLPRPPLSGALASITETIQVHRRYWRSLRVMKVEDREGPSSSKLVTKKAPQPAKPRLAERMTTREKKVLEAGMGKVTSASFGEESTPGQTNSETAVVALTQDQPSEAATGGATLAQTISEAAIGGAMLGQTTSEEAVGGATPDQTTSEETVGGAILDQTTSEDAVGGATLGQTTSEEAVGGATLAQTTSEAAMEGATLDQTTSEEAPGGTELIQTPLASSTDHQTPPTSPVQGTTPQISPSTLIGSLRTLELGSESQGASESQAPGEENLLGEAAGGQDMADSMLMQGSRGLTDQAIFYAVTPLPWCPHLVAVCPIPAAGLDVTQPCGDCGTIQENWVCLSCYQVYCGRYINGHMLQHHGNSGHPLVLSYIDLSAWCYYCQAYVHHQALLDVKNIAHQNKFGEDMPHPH
Method in brief: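 HDAC6 human recombinant enzyme with fluorimetric substrate; […]. Reaction 60 min at 37° C, then developer 30 min at 37° C; fluorescence read at Ex 390/Em 460.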

HDAC1 = target: T2, HDAC1 (Homo sapiens, UniProt Q13547); assay: HDAC enzyme activity inhibition (in vitro), HDAC1 Fluorimetric Drug Discovery Assay Kit; assay type: biochemical; conditions: samples at 100, 1000 and 10000 nM; 37° C. 60 minutes; fluorescence Ex 390, Em 460; read-out: HDAC1 IC50
T2 construct: purchased Enzolifesciences BML-AK511
Method in brief: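 HDAC1 was tested at 100, 1000 and 10000 nM and recombinant human HDAC6 at 0.1, 1, 10, 100 and 1000 nM. Enzyme reactions ran 60 min at 37° C, then developer was added for 30 min at 37° C, and fluorescence (Ex 390, Em 460) was read.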

T2 sequence (Q13547 whole entry): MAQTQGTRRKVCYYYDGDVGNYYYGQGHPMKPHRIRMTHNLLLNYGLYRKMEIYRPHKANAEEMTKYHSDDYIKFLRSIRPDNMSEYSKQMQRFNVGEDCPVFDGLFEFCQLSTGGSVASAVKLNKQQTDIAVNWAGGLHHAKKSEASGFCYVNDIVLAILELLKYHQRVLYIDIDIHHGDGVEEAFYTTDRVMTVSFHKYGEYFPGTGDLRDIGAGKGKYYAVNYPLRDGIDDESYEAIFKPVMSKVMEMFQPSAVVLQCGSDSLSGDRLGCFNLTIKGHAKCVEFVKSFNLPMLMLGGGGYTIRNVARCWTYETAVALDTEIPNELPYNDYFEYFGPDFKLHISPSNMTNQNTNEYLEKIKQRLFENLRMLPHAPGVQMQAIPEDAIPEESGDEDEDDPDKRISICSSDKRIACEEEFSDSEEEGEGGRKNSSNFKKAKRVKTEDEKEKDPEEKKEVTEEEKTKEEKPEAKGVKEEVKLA

Row | SMILES | IC50 (HDAC6 human recombinant) [nM] | IC50 (HDAC1) [nM]
1 | CC(C)(C)OC(=O)N1CCC(n2cc(-c3cc4oc(=O)n(Cc5ccc(-c6nnc(C(F)F)o6)cn5)c4cc3F)cn2)CC1 [Compound 358, tert-butyl 4-(4-(3-((5-(5-(difluoromethyl)-1,3,4-oxadiazole-2-yl)pyridine-2-yl)methyl)-5-fluoro-2-oxo-2,3-dihydrobenzo[d]oxazole-6-yl)-1H-pyrazole-1-yl)piperidine-1-carboxylate] | 130 | > 10000
2 | O=c1oc2cc(-c3cnn(C4CCNCC4)c3)c(F)cc2n1Cc1ccc(-c2nnc(C(F)F)o2)cn1 [Compound 359, 3-((5-(5-(difluoromethyl)-1,3,4-oxadiazole-2-yl)pyridine-2-yl)methyl)-5-fluoro-6-(1-(piperidine-4-yl)-1H-pyrazole-4-yl)benzo[d]oxazole-2(3H)-one] | 33 | > 10000
3 | CN1CCC(n2cc(-c3cc4oc(=O)n(Cc5ccc(-c6nnc(C(F)F)o6)cn5)c4cc3F)cn2)CC1 [Compound 360, 3-((5-(5-(difluoromethyl)-1,3,4-oxadiazole-2-yl)pyridine-2-yl)methyl)-5-fluoro-6-(1-(1-methylpiperidine-4-yl)-1H-pyrazole-4-yl)benzo[d]oxazole-2(3H)-one] | 27 | > 10000
4 | CC(C)N1CCC(n2cc(-c3cc4oc(=O)n(Cc5ccc(-c6nnc(C(F)F)o6)cn5)c4cc3F)cn2)CC1 [Compound 361, 3-((5-(5-(difluoromethyl)-1,3,4-oxadiazole-2-yl)pyridine-2-yl)methyl)-5-fluoro-6-(1-(1-isopropylpiperidine-4-yl)-1H-pyrazole-4-yl)benzo[d]oxazole-2(3H)-one] | 23 | > 10000
5 | O=c1oc2cc(-c3cnn(C4CCN(C5COC5)CC4)c3)c(F)cc2n1Cc1ccc(-c2nnc(C(F)F)o2)cn1 [Compound 362, 3-((5-(5-(difluoromethyl)-1,3,4-oxadiazole-2-yl)pyridine-2-yl)methyl)-5-fluoro-6-(1-(1-(oxetan-3-yl)piperidine-4-yl)-1H-pyrazole-4-yl)benzo[d]oxazole-2(3H)-one] | 31 | > 10000
6 | O=c1oc2cc(-c3cnn(C4CCN(CC(F)(F)F)CC4)c3)c(F)cc2n1Cc1ccc(-c2nnc(C(F)F)o2)cn1 [Compound 363, 3-((5-(5-(difluoromethyl)-1,3,4-oxadiazole-2-yl)pyridine-2-yl)methyl)-5-fluoro-6-(1-(1-(2,2,2-trifluoroethyl)piperidine-4-yl)-1H-pyrazole-4-yl)benzo[d]oxazole-2(3H)-one] | 75 | > 10000
7 | CN1CCN(c2cc(-c3cc4oc(=O)n(Cc5ccc(-c6nnc(C(F)F)o6)cn5)c4cc3F)ccn2)CC1 [Compound 364, 3-((5-(5-(difluoromethyl)-1,3,4-oxadiazole-2-yl)pyridine-2-yl)methyl)-5-fluoro-6-(2-(4-methylpiperazine-1-yl)pyridine-4-yl)benzo[d]oxazole-2(3H)-one] | 26 | > 10000
8 | CC(C)N1CCN(c2cc(-c3cc4oc(=O)n(Cc5ccc(-c6nnc(C(F)F)o6)cn5)c4cc3F)ccn2)CC1 [Compound 365, 3-((5-(5-(difluoromethyl)-1,3,4-oxadiazole-2-yl)pyridine-2-yl)methyl)-5-fluoro-6-(2-(4-isopropylpiperazine-1-yl)pyridine-4-yl)benzo[d]oxazole-2(3H)-one] | 33 | > 10000
9 | O=c1oc2cc(-c3ccnc(N4CCN(C5COC5)CC4)c3)c(F)cc2n1Cc1ccc(-c2nnc(C(F)F)o2)cn1 [Compound 366, 3-((5-(5-(difluoromethyl)-1,3,4-oxadiazole-2-yl)pyridine-2-yl)methyl)-5-fluoro-6-(2-(4-(oxetan-3-yl)piperazine-1-yl)pyridine-4-yl)benzo[d]oxazole-2(3H)-one] | 52 | > 10000
10 | O=c1oc2cc(-c3ccnc(N4CCN(C5CCC5)CC4)c3)c(F)cc2n1Cc1ccc(-c2nnc(C(F)F)o2)cn1 [Compound 367, 6-(2-(4-cyclobutylpiperazine-1-yl)pyridine-4-yl)-3-((5-(5-(difluoromethyl)-1,3,4-oxadiazole-2-yl)pyridine-2-yl)methyl)-5-fluorobenzo[d]oxazole-2(3H)-one] | 312 | > 10000
11 | O=c1oc2cc(-c3ccnc(N4CCNCC4)c3)c(F)cc2n1Cc1ccc(-c2nnc(C(F)F)o2)cn1 [Compound 368, 3-((5-(5-(difluoromethyl)-1,3,4-oxadiazole-2-yl)pyridine-2-yl)methyl)-5-fluoro-6-(2-(piperazine-1-yl)pyridine-4-yl)benzo[d]oxazole-2(3H)-one] | 18 | > 10000
